Where two headings read alike, the source gives them in different places.
Columns and labels:
[1] = biological target: T1, SARS-CoV-2 nsp13 (Severe acute respiratory syndrome coronavirus 2, UniProt P0DTD1); details: SARS-CoV-2 nsp13-associated ATPase activity; cited from earlier work
[2] = tested on: Vero E6-GFP cells; details: cited from earlier work
[3] = tested on: HCoV229E; parameters: method as in PMID 37562607; details: cited from earlier work
[4] = biological target: T1, SARS-CoV-2 nsp13; details: cited from earlier work
[5] = tested on: SARS-CoV-2; details: cited from earlier work
[6] = tested on: MERS-CoV; details: cited from earlier work
[7] = Cellular toxicity assay (GFP signal as viability); assay type: cell-based; details: African green monkey; Vero cells; read-out: CC50, concentration required to reduce Vero cells viability by 50%
Description: Vero E6-green fluorescent protein (GFP) cells (Janssen Pharmaceutical were maintained in Dulbecco’s modified Eagle’s medium (DMEM, Gibco) supplemented with 10% v/v foetal beef serum (FBS, Gibco), 0.075% Sodium Bicarbonate (7.5% solution, Gibco) and 1X Pen-strep (Euroclone) and kept under 5% CO2 on 37 ◦C. The cells were seeded at 10 000 cells/well in 96-well black cell-treated plates (PerkinElmer). The following day, cells were incubated with the control compounds at different concentrations. Compound was dissolved in 0.1% DMSO. Seventy-two hours post infection the GPF signal, as direct index of cellular viability, was quantified by measuring the total-well fluorescence with a Victor 3 multiplate reader (PerkinElmer) set to excitation and emission wavelengths of 485 and 535 nm, respectively.
The percentage of induced cytopathic effects (CPE) was calculated considering the mock as 100% of cell viability, and the readout from empty wells as blank. The compound half-maximal cytopathic concentration (CC50), was determined via non-linear regression by using on Prism 9 v. 9.4.1 software (GraphPad) the built-in function dose-response inhibition, log-concentration-normalized response. Experimental points represent the average and standard deviation of at least two sets of independent triplicates.

[8] = biological target: T1, SARS-CoV-2 nsp13; test: SARS-CoV-2 nsp13 unwinding-associated activity (fluorescence, BSA-TCEP); assay type: biochemical; details: SARS-CoV-2 nsp13-associated unwinding activity, from dose-response curves
[9] = biological target: T1, SARS-CoV-2 nsp13; test: SARS-CoV-2 nsp13 ATPase-associated activity (Biomol Green, BSA-TCEP); assay type: biochemical; details: for IC50: SARS-CoV-2 nsp13-associated ATPase activity, from dose-response curves
[10] = biological target: T1, SARS-CoV-2 nsp13; test: Incubation-dependent potency of 5c on nsp13 (inhibition type); assay type: biochemical; details: for IC50: read-out: IC50 at time-point
[11] = SARS-CoV-2 nsp13-associated unwinding activity, read-out: IC50 unwinding
[12] = SARS-CoV-2 infected cells, read-out: EC50 SARS-CoV-2 replication
[13] = read-out: Activity in enzyme assay IC50 Unwinding BSA-TCEP
[14] = read-out: Activity in enzyme assay IC50 ATPase BSA-TCEP
[15] = read-out: EC50 antiviral activity

O=C(/C=C(\O)C(=O)O)/C=C/c1cn(Cc2ccccc2)c2ccccc12 [compound 4]
IC50 [1]: 12.8 ± 1.3 µM | CC50 [2]: > 264 µM | EC50 [3]: 1.83 µM | IC50 [4, 11]: 12.7 ± 4.9 µM | EC50 [5, 12]: 1.03 ± 0.24 µM | EC50 [6]: 6.32 µM

CC(C)c1ccc(Cn2cc(/C=C/C(=O)/C=C(\O)C(=O)O)c3ccccc32)cc1 [5c]
CC50 at 72 h [7]: > 100 µM | IC50 [8, 13]: 4.73 ± 0.5 µM | IC50 [9, 14]: 1.8 ± 0.19 µM | higher ATPase inhibition in respect to 4 ([9]; ratio of IC50 values): 7 fold | IC50 ([10]; 1 min after activation of the reaction with the substrate): 0.76 µM | IC50 ([10]; 5 min after activation of the reaction with the substrate): 1.64 µM | IC50 ([10]; 10 min after activation of the reaction with the substrate): 2.75 µM | IC50 ([10]; 15 min after activation of the reaction with the substrate): 2.94 µM | IC50 ([10]; 20 min after activation of the reaction with the substrate): 2.76 µM | nature of the inhibition ([10]; from time-increased IC50 values): non-covalent/reversible | effect of extended pre-incubation of compound and enzyme on inhibitory potency ([10]; pre-incubation extended to +20 min and +50 min at RT): did not lead to an increase of the inhibitory potency

N#Cc1ccc(Cn2cc(/C=C/C(=O)/C=C(\O)C(=O)O)c3ccccc32)cc1 [5g, (2Z,5E)-6-(1-(4-cyanobenzyl)-1H-indol-3-yl)-2-hydroxy-4-oxohexa-2,5-dienoic acid]
CC50 at 72 h [7]: > 100 µM | IC50 [8, 13]: 2.08 ± 0.04 µM | IC50 [9, 14]: 1.91 ± 0.31 µM

C=CCn1c(CSc2ccccc2[N+](=O)[O-])n[nH]c1=S [SSYA10-001]
IC50 ([4]; SARS-CoV-2 nsp13, read-out: IC50 vs unwinding): 7.5 µM | EC50 [5, 15]: 81 µM

CC(C)=CCn1cc(/C=C/C(=O)/C=C(\O)C(=O)O)c2ccccc21 [compound 3]
IC50 [1]: 26.8 µM | CC50 [2]: > 264 µM | EC50 [3]: 0.54 µM | IC50 [4, 11]: 9.51 µM | EC50 [5, 12]: 4.54 µM | EC50 [6]: 0.33 µM

CC(C)=CCc1c(O)cc(O)c2c(=O)cc(-c3ccc(O)cc3)oc12 [compound 2, licoflavone C]
EC50 [5, 15]: > 100 µM

CCOC(=O)/C(O)=C/C(=O)c1cn(Cc2ccc(F)cc2)c2ccccc12 [8d, Ethyl (Z)-4-(1-(4-fluorobenzyl)-1H-indol-3-yl)-2-hydroxy-4-oxobut-2-enoate]
CC50 at 72 h [7]: > 100 µM | IC50 ([8]; Activity in enzyme assay IC50 Unwinding BSA-TCEP): 1.73 ± 0.53 µM | IC50 ([9]; Activity in enzyme assay IC50 ATPase BSA-TCEP): 8.7 ± 0.53 µM

Reference: article PMC12344683, “N-alkyl and N-benzyl indoles are anti-SARS-CoV-2 agents and nsp13 inhibitors” (Journal of Enzyme Inhibition and Medicinal Chemistry, 2025)
